Assays:
Cdc7/Dbf4 = Cdc7/Dbf4 (Homo sapiens, UniProt O00311); experiment: Cdc7 biochemical assay Method 2: Cdc7/Dbf4 Enzyme TR-FRET Assay measuring pS40MCM2; conditions: pS40 MCM2 peptide, 1 μM ATP, 25° C., 120 minutes, read-out: Biochemical Method 2 (pIC50) (converted)
Description: This protocol describes a method for assaying a compounds' ability to inhibit Cdc7 activity by measuring pS40MCM2 levels in a Cdc7/Dbf4 Enzyme TR-FRET Assay.
2.5 nM Cdc7/Dbf4 was incubated with 100 nM of biotin-labelled peptide 35-TDALTS(pS)PGRDLP in the presence of 1 μM ATP at 25° C. for 120 minutes. The phosphorylation of the peptide was detected using TR-FRET. Anti-Mcm2 (pS40) antibody, Terbium anti-rabbit secondary antibody and Streptavidin-Alexa Fluor488 form the detection system.

Cdc7 [1] = target: T1, Cdc7 (Homo sapiens, UniProt O00311); experiment: Cdc7 cell pharmacodynamics assay Method 2: pS40MCM2 levels in HCT116 cells; format: cell-based; set-up: endogenous in cells; conditions: 18 hours treatment, read-out: Biomarker Method 2 (pEC50) (converted)
T1 sequence (O00311 whole entry): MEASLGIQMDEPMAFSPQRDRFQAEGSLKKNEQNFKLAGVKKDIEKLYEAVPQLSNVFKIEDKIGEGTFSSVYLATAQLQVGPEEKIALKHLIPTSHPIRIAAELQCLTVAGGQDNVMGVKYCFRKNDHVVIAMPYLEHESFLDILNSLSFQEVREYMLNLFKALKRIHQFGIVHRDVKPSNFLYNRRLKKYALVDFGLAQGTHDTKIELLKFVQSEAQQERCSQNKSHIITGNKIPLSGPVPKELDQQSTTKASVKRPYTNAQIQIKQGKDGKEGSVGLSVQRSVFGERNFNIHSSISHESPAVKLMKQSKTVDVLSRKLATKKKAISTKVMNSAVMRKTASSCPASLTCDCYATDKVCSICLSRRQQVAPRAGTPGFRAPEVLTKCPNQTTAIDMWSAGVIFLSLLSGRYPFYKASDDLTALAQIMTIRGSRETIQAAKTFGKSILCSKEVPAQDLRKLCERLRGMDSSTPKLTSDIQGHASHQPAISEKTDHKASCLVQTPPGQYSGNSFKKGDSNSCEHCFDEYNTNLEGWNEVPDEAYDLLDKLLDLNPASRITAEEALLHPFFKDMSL
T1 sequence (Q9UBU7 whole entry partner): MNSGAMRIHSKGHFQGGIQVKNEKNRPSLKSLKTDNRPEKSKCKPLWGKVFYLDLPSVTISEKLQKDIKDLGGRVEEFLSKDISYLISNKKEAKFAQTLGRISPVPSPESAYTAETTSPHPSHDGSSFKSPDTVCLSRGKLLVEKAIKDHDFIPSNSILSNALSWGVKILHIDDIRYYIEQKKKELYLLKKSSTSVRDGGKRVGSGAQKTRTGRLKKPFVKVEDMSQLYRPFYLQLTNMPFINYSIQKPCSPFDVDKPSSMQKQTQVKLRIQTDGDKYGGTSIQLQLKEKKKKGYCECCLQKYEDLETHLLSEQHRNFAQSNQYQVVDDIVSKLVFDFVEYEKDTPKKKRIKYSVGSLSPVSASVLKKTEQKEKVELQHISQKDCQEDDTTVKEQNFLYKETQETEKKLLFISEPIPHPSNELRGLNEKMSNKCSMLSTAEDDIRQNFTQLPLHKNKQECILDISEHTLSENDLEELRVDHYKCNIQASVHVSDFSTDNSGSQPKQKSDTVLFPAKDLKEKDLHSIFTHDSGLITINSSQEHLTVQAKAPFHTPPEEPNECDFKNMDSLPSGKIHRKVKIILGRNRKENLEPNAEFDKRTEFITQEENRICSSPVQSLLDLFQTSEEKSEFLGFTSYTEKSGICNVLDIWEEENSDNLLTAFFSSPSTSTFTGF
From the text: This protocol describes a method to investigate the inhibition of Cdc7 activity by measuring pS40MCM2 levels in cells, after treatment with compounds.
• HCT116 cells (ATCC, #CCL-247) • McCoys 5A with L-glutamine (Cellgro, #10-050-CV) • 10% FCS (Cellgro, #35-010-CV) • D-PBS without CaCl2 and MgCl2 (Cellgro, #21-031-CV) • Trypsin/EDTA (Cellgro, #25-052-CL) • BSA (Calbiochem, 126593) • Cell Extraction Buffer (Invitrogen FNN0011) • Protease inhibitor cocktail (Sigma P-2714) • PMSF 0.3M stock in DMSO (Sigma P7626) • Antibody—rabbit pMCM2 Ser40 (Abeam, AB133243) • Antibody—goat MCM2 (Bethyl #A300-122A) • Antibody—goat Anti Rabbit IgG HRP (Thermo, 31462) • SuperSignal ELISA Pico Chemiluminescent Substrate (Perbio Science UK Ltd 37069) • 10×PBS (Growcells, MRGF-6236) • Triton X100 (Sigma, P-T8787) • DMSO (Fisher, D128-1) • 2-Propanol (J. T. Baker, 9095-03) Method • Seed 1×10^6 HCT116 cells into each of two 175 cm^2 flask containing 30 mL Cell Growth Media and incubate at 37° C., 5% CO2 for 3 days. • Harvest the cells from one T175 cm^2 flask and count. • Dilute with Cell Growth Media to a cell density of 2×10^5. Dispense 100 μL to each well (20,000 HCT116 cells/well) of TC treated 96-well plate(s). • Allow cells to settle overnight in incubator set at 37° C. and 5% CO2. • Cell treatment: Transfer 0.25 μL/well from the compound plate to the wells of the cell plate(s). This is a 1:400 dilution of compound in the assay. • Once all cells are treated place the cells back to the incubator and incubate for 18 hours. • Dilute the capture antibody (total MCM2 #A300-122A) 1 in 250 in the required volume of PBS (5 mL per assay plate, plus 5 mL for dead volume) and add 50 μL to each well of a Hybond plate except wells A12 & B12. Seal the plate and incubate at room temperature fora minimum of 2 hours. • Defrost aliquot of Invitrogen Cell Extraction Buffer (FNN0011) on ice and supplement with appropriate volume of both Sigma protease inhibitor cocktail (P-2714) and PMSF (final cone 1 mM from a 1 M stock in DMSO). • After the 6 hour or 18 hour cell treatment time, tap out the media from the assay plates and place them in the −70° C. freezer for at least 5 minutes. • Flick out the remaining liquid in the previously prepared capture Ab plate(s) and add 200 μL 2% BSA per well. Incubate for 1 hour at room temperature. • Remove plates from freezer and add 20 μL of ice cold complete lysis buffer. Incubate cells for 30 minutes at 4° C. • Add 30 μL per well 2% BSA • At the end of the 1 hour incubation, wash the Capture/ELISA plate(s) with Wash Buffer on the BioTek plate washer. • Transfer 40 μL per well of the lysis plate(s) to the same wells in the Capture/ELISA plate. Incubate cells overnight at 4° C. • At the end of the overnight incubation, wash the ELISA plate(s) with Wash Buffer on BioTek plate washer. • Prepare Detection Antibody Buffer and dispense 50 μL to all wells of ELISA plate(s) except wells G1 & H1. Cover plate and incubate at room temperature for 2 hours with gentle shaking. • At the end of the 2 hour incubation, wash the ELISA plate(s) with Wash Buffer on the BioTek plate washer. • Prepare the Conjugated Antibody Buffer and dispense 50 μL to all wells of ELISA plate(s). • Cover the plate and incubate at room temperature for 1 hour with gentle shaking. • At the end of the 1 hour incubation, wash the ELISA plate(s) with Wash Buffer on the BioTek plate washer. • Prepare Substrate Buffer and dispense 50 μL to all wells of ELISA plate(s). • Incubate for a minimum of 10 minutes and read plates on the EnVision 2100 Multilabel Reader (Mirror: Luminescence (404) & Luminescence 700 (212); Measurement Height: 6.5 mm; Measurement Time: 0.2 s). Method 3

Cdc7 [2] = target: T1, Cdc7; experiment: Cdc7 cell pharmacodynamics assay Method 3: pS53MCM2 levels in SW48 cells; format: cell-based; set-up: endogenous in cells; host or cells: SW48; conditions: 6 hours treatment, read-out: Biomarker Method 3 (pEC50) (converted)
From the text: This protocol describes a method to investigate the inhibition of Cdc7 activity by measuring pS53MCM2 levels in cells, after treatment with compounds.
• SW48 cells • RPMI 1640 (Sigma, R5886) • 10% FCS (Sera Laboratories International Ltd, EU000F Batch: 108005) • 100× L-Glutamine (Invitrogen, 25030-024) • D-Glucose Solution (10%) (Sigma, G8644) • HEPES Buffer Solution (Sigma, 83264) • Sodium Pyruvate (Sigma, S8636) • PBS (Fisger, BP399-4) • Trypsin/EDTA (Invitrogen 25300-054) • 2% BSA in PBS • Cell Extraction Buffer (Invitrogen FNN0011) • Protease inhibitor cocktail (Sigma P-2714) • PMSF 0.3M stock in DMSO (Sigma P7626) • Antibody—rabbit pMCM2 Ser53 (Bethyl #A300-756A) • Antibody—goat MCM2 (Bethyl #A300-122A) • Antibody—goat Anti Rabbit IgG HRP (Perbio Science UK Ltd 31462) • SuperSignal ELISA Pico Chemiluminescent Substrate (Perbio Science UK Ltd 37070) Method • Plate 30,000 SW48 cells per well in standard TC treated 96 well plate in 100 μL complete RPMI 1640 medium. • Allow cells to settle overnight in incubator set at 37° C. and 5% CO2. • Cell treatment: prepare a 384 well plate containing 80 μl PBS/well. The PBS should be at room temperature—to be referred to as intermediate plate. Transfer 2 μL of compound from mother plate to intermediate (daughter plate) 1:40 dilution, then 5 μL intermediate to cell (daughter) plate. • Once all cells are treated place the cells back to the incubator and incubate for 6 hours. • Dilute the capture antibody (total MCM2 #A300-122A) 1 in 250 in the required volume of PBS (5 mL per assay plate, plus 5 mL for dead volume) and add 50 μL to each well of a Hybond plate. Seal the plate and incubate at room temperature for a minimum of 2 hours. • Defrost aliquot of Invitrogen Cell Extraction Buffer (FNN0011) on ice and supplement with appropriate volume of both Sigma protease inhibitor cocktail (P-2714) and PMSF (final cone 1 mM from a 1 M stock in DMSO). • After the 6 hour cell treatment time, tap out the media from the assay plates and place them in the −80° C. freezer for at least 5 minutes. • Remove plates from freezer and add 20 μL of ice cold complete lysis buffer, with the multidrop. Incubate cells for 30 minutes at 4° C. • Add 80 μL per well 2% BSA. • Flick out the remaining liquid from the capture plate and transfer 80 μL from the lysis plate to the same wells in the capture/ELISA plate, using the Biomek. Cover with plate seal and incubate plates overnight at 4° C. • Wash plates with PBS, remove any residual remaining liquid and add 50 μL per well of pMCM2 Ser53 antibody (#A300-756A) diluted 1 in 100 in 2% BSA. Cover plate and incubate at room temperature for 2 hours with gentle shaking. • Wash plates with PBS, remove any residual remaining liquid and Incubate with 50 μL goat anti rabbit antibody (1 in 800 dilution in 2% BSA), for 1 hour at room temperature. • Wash plates with PBS, remove any residual remaining liquid and add 50 μL mixed SuperSignal Pico substrate. • Incubate each plate for 5 minutes at room temperature shielding the plates from direct light (with a cover plate). Read plates with the luminescent detection. Results

Chain of Cdc7/Dbf4 (O00311 whole entry): as the sequence (O00311 whole entry) above
Chain of Cdc7/Dbf4 (Q9UBU7 whole entry partner): as the sequence (Q9UBU7 whole entry partner) above

IC50 (Cdc7/Dbf4) | EC50 (Cdc7 [1]) | EC50 (Cdc7 [2]) | SMILES
0.00708 µM | 0.851 µM | 5.75 µM | O=c1[nH]c(-c2c[nH]c3ncccc23)nc(N2CCNCC(F)(F)C2)c1Cl [Compound 52, 5-chloro-4-(6,6-difluoro-1,4-diazepan-1-yl)-2-(1H-pyrrolo[2,3-b]pyridin-3-yl)-1H-pyrimidin-6-one]
0.00195 µM | 0.0447 µM | 1.17 µM | O=c1[nH]c(-c2cn[nH]c2C(F)(F)F)nc(N2CCNCC(F)(F)C2)c1Cl [Compound 45, 5-chloro-4-(6,6-difluoro-1,4-diazepan-1-yl)-2-[5-(trifluoromethyl)-1H-pyrazol-4-yl]-1H-pyrimidin-6-one]
0.00129 µM | 0.0331 µM | 0.955 µM | C[C@@H]1COCCN1c1nc(-c2c[nH]c3ncccc23)[nH]c(=O)c1Cl [Compound 53, 5-chloro-4-[(3R)-3-methylmorpholin-4-yl]-2-(1H-pyrrolo[2,3-b]pyridin-3-yl)-1H-pyrimidin-6-one]
0.000776 µM | 0.038 µM | 1.17 µM | O=c1[nH]c(-c2cn[nH]c2C(F)(F)F)nc(N2CCOCC2)c1Cl [Compound 47, 5-chloro-4-morpholino-2-[5-(trifluoromethyl)-1H-pyrazol-4-yl]-1H-pyrimidin-6-one]
0.00224 µM | 0.457 µM | – | Cc1[nH]ncc1-c1nc(N2CCNC[C@H]2C)c(Cl)c(=O)[nH]1 [Compound 48, 5-chloro-4-[(2R)-2-methylpiperazin-1-yl]-2-(5-methyl-1H-pyrazol-4-yl)-1H-pyrimidin-6-one]
0.00166 µM | 0.151 µM | – | CC1(C)CNCCN1c1nc(-c2cn[nH]c2C(F)(F)F)[nH]c(=O)c1Cl [Compound 46, 5-chloro-4-(2,2-dimethylpiperazin-1-yl)-2-[5-(trifluoromethyl)-1H-pyrazol-4-yl]-1H-pyrimidin-6-one]
